Data: the supplement of paper PMC8617591

Key:
[1] = system: Mycobacterium tuberculosis Erdman (autoluminescent); experiment: GRinf, maximum normalised growth rate inhibition (three-drug combination) (unitless (-1 to 1)); higher = less effect (negative = killing)
Protocol: (§1)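 DiaMOND equipotent three-drug combination dose responses (10 doses, 1.5- or 2-fold spacing, centred on IC90) against autoluminescent M. tuberculosis Erdman in 8 in vitro models. Read-out is OD600, or luminescence for the intracellular and dormancy models, normalised to untreated wells. Hill-fit Einf, AUC25 and GRinf are potency metrics; FIC50 and FIC90 are total Loewe fractional inhibitory concentrations as log2 (negative = synergy).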

[2] = system: Mycobacterium tuberculosis Erdman (autoluminescent); experiment: Einf, fitted maximum growth inhibition of three-drug combination (fraction); higher = stronger maximal inhibition
Protocol: as §1

[3] = system: Mycobacterium tuberculosis Erdman (autoluminescent); experiment: AUC25, normalised area under dose response up to IC25 (three-drug combination) (fraction (0-1)); higher = more potent at low dose
Protocol: as §1

[4] = system: Mycobacterium tuberculosis Erdman (autoluminescent); experiment: total FIC50 (Loewe) at 50% inhibition, three-drug combination (log2); higher = more antagonistic
Protocol: as §1

[5] = system: Mycobacterium tuberculosis Erdman (autoluminescent); experiment: total FIC90 (Loewe) at 90% inhibition, three-drug combination (log2); higher = more antagonistic
Protocol: as §1

CC(C)/N=c1\cc2n(-c3ccc(Cl)cc3)c3ccccc3nc-2cc1Nc1ccc(Cl)cc1 [clofazimine] + CC(=O)NC[C@H]1CN(c2ccc(N3CCOCC3)c(F)c2)C(=O)O1 [linezolid] + NC(=O)c1cnccn1 [pyrazinamide]
Settings	AUC25, [3]	Einf, [2]	GRinf, [1]	total FIC50, [4]	total FIC90, [5]
in vitro model: acidic pH 5.7, time point: constant (~7 days, model-specific)	0.115	0.851	-0.367	-0.389	–
in vitro model: acidic pH 5.7, time point: terminal (~4-5 doublings, model-specific)	0.099	0.964	-0.333	0.309	-1.87
in vitro model: intracellular J774, time point: constant = terminal	–	0.935	-0.0585	–	0.0502

Settings	AUC25, [3]	Einf, [2]	GRinf, [1]	total FIC50, [4]	total FIC90, [5]
in vitro model: butyrate, time point: constant (~7 days, model-specific)	0.121	0.931	-0.0985	-0.132	1.31
in vitro model: butyrate, time point: terminal (~4-5 doublings, model-specific)	0.08	0.95	-0.0789	-0.0376	0.0936
in vitro model: cholesterol 0.05 mM, time point: constant (~7 days, model-specific)	0.131	0.722	-0.114	–	–
in vitro model: cholesterol 0.05 mM, time point: terminal (~4-5 doublings, model-specific)	0.142	0.927	-0.198	0.348	–
in vitro model: cholesterol-high 0.2 mM, time point: constant (~7 days, model-specific)	0.137	0.934	-0.71	0.27	–
in vitro model: cholesterol-high 0.2 mM, time point: terminal (~4-5 doublings, model-specific)	0.128	1	-0.983	-0.375	0.282
in vitro model: dormancy (butyrate + nitrate, low O2), time point: constant (~7 days, model-specific)	0.104	0.958	-0.0605	0.947	1.54
in vitro model: dormancy (butyrate + nitrate, low O2), time point: terminal (~4-5 doublings, model-specific)	0.0414	0.986	-0.449	0.584	0.337
in vitro model: standard 7H9 glycerol, time point: constant = terminal	0.123	0.939	-0.131	0.477	–
in vitro model: valerate, time point: constant (~7 days, model-specific)	0.119	0.8	0.241	0.731	–
in vitro model: valerate, time point: terminal (~4-5 doublings, model-specific)	0.0593	0.874	0.183	0.277	-1.05

CC(C)/N=c1\cc2n(-c3ccc(Cl)cc3)c3ccccc3nc-2cc1Nc1ccc(Cl)cc1 [clofazimine] + CC(=O)NC[C@H]1CN(c2ccc(N3CCOCC3)c(F)c2)C(=O)O1 [linezolid] + O=[N+]([O-])c1cn2c(n1)OC[C@@H](OCc1ccc(OC(F)(F)F)cc1)C2 [pretomanid]
Settings	AUC25, [3]	Einf, [2]	GRinf, [1]	total FIC50, [4]	total FIC90, [5]
in vitro model: acidic pH 5.7, time point: constant (~7 days, model-specific)	0.106	0.845	-0.45	0.0449	–
in vitro model: acidic pH 5.7, time point: terminal (~4-5 doublings, model-specific)	0.0757	0.964	-0.318	1.03	0.257
in vitro model: intracellular J774, time point: constant = terminal	–	0.996	-0.884	–	1.09

Settings	AUC25, [3]	Einf, [2]	GRinf, [1]	total FIC50, [4]	total FIC90, [5]
in vitro model: butyrate, time point: constant (~7 days, model-specific)	0.124	0.962	-0.311	0.534	1.52
in vitro model: butyrate, time point: terminal (~4-5 doublings, model-specific)	0.0915	0.98	-0.185	0.691	1.09
in vitro model: cholesterol 0.05 mM, time point: constant (~7 days, model-specific)	0.133	0.677	-0.0316	-0.375	–
in vitro model: cholesterol 0.05 mM, time point: terminal (~4-5 doublings, model-specific)	0.136	0.918	-0.14	0.13	2.05
in vitro model: cholesterol-high 0.2 mM, time point: constant (~7 days, model-specific)	0.116	0.922	-0.441	0.0459	1.18
in vitro model: cholesterol-high 0.2 mM, time point: terminal (~4-5 doublings, model-specific)	0.123	1	-0.938	-0.122	0.391
in vitro model: dormancy (butyrate + nitrate, low O2), time point: constant (~7 days, model-specific)	0.0841	0.925	0.221	0.87	1.32
in vitro model: dormancy (butyrate + nitrate, low O2), time point: terminal (~4-5 doublings, model-specific)	0.0337	0.986	-0.216	0.422	0.0103
in vitro model: standard 7H9 glycerol, time point: constant = terminal	0.128	0.951	-0.277	0.0629	0.915
in vitro model: valerate, time point: constant (~7 days, model-specific)	0.14	0.85	-0.138	0.292	–
in vitro model: valerate, time point: terminal (~4-5 doublings, model-specific)	0.0928	0.892	0.125	0.0202	1.37

CC(C)/N=c1\cc2n(-c3ccc(Cl)cc3)c3ccccc3nc-2cc1Nc1ccc(Cl)cc1 [clofazimine] + CC[C@@H](CO)NCCN[C@@H](CC)CO [ethambutol] + CC(=O)NC[C@H]1CN(c2ccc(N3CCOCC3)c(F)c2)C(=O)O1 [linezolid]
Settings	AUC25, [3]	Einf, [2]	GRinf, [1]	total FIC50, [4]	total FIC90, [5]
in vitro model: acidic pH 5.7, time point: constant (~7 days, model-specific)	0.105	0.811	-0.393	0.0935	–
in vitro model: acidic pH 5.7, time point: terminal (~4-5 doublings, model-specific)	0.0957	0.963	-0.297	0.906	0.401
in vitro model: intracellular J774, time point: constant = terminal	–	1	-0.815	–	0.836

Settings	AUC25, [3]	Einf, [2]	GRinf, [1]	total FIC50, [4]	total FIC90, [5]
in vitro model: butyrate, time point: constant (~7 days, model-specific)	0.11	0.96	-0.165	0.534	–
in vitro model: butyrate, time point: terminal (~4-5 doublings, model-specific)	0.0792	0.977	-0.123	0.703	0.483
in vitro model: cholesterol 0.05 mM, time point: constant (~7 days, model-specific)	0.148	0.746	-0.203	–	–
in vitro model: cholesterol 0.05 mM, time point: terminal (~4-5 doublings, model-specific)	0.165	0.917	-0.514	-0.786	–
in vitro model: cholesterol-high 0.2 mM, time point: constant (~7 days, model-specific)	0.129	0.925	-1	0.0764	–
in vitro model: cholesterol-high 0.2 mM, time point: terminal (~4-5 doublings, model-specific)	0.125	1	-0.967	-0.259	0.74
in vitro model: dormancy (butyrate + nitrate, low O2), time point: constant (~7 days, model-specific)	0.0953	0.783	0.496	0.231	–
in vitro model: dormancy (butyrate + nitrate, low O2), time point: terminal (~4-5 doublings, model-specific)	0.0972	0.963	-0.701	0.197	0.279
in vitro model: standard 7H9 glycerol, time point: constant = terminal	0.122	0.949	-0.0541	0.243	–
in vitro model: valerate, time point: constant (~7 days, model-specific)	0.11	0.869	-0.282	0.664	–
in vitro model: valerate, time point: terminal (~4-5 doublings, model-specific)	0.0648	0.881	-0.0657	0.302	-0.133
